Assay results published in patent publication EP1523993A1, “Polypeptide compositions with improved stability” (Eli Lilly & Company, priority 1999, dated 2001).

Assays:
[1] = tested on: Humulin® N (U40); assay: Modified 10X Glycerin Stress Test (Mod.10X-GST): HMWP growth by size exclusion HPLC; format: physicochemical, human
Procedure: One milliliter of Humulin® N (U40, Eli Lilly & Co., Indianapolis IN, USA) is spiked with about 160 mg (about 128 µl) of glycerin to be tested. This glycerin level is about ten times the normal level found in commercial products. Another milliliter of Humulin® N U40 is spiked with 128 µL of water. Both samples are stored at 30°C for 7 days. The high molecular weight protein (HMWP) level of the two samples is then measured by size exclusion HPLC chromatography under denaturing conditions [e.g., Waters column labeled "Protein-Pak 125 insulin assay certified", Waters Corporation (Milford, MA, USA) part number 20574; mobile phase 65 parts of a 1 mg/mL L-arginine solution, 20 parts of acetonitrile and 15 parts of glacial acetic acid]. The test samples are solubilized by acidification with a small volume of 9.6 N HCl prior to analysis.
The HMWP growth in the sample is calculated as the HMWP level in the 30°C test sample minus the HMWP level in the water spiked control. Percent growth is reported per 7 day period.

[2] = tested on: Humulin® R (U40); assay: 10X Glycerin Stress Test (10X-GST): HMWP growth by size exclusion HPLC; format: physicochemical, human; settings: Humulin® R with 160 mg/mL glycerin, 7 days at 30°C minus frozen control
Procedure: The 10X Glycerin Stress Test (10X-GST) measures the formation of covalent dimers and polymers in an insulin composition. Glycerin to be tested is added to Humulin® R (U40, Eli Lilly & Co., Indianapolis IN, USA) to a final concentration of 160 mg/mL of glycerin, i.e., ten times the level of glycerin normally used in this formulation. One aliquot of the resulting formulation is incubated at 30°C for 7 days, while a second aliquot is stored frozen over the same time period. Then, the high molecular weight protein (HMWP) level of the two aliquots is measured by size exclusion HPLC chromatography under denaturing conditions (e.g., Zorbax GF 250 Special column; mobile phase 65 parts of 0.1M ammonium phosphate buffer at pH 7.5 and 35 parts acetonitrile; detection at 214 nm). The growth of HMWP in the test formulation is the concentration of HMWP in the 30°C sample minus the concentration of HMWP in the frozen control.

[3] = Humulin® N with treated or untreated glycerin, 7 days at 30°C, Table 7
[4] = Humulin® N spiked with about 160 mg glycerin per mL, 7 days at 30°C minus water spiked control, Table 5

| Compound | Mod.10X-GST Test [1, 3] [%] | 10X-GST Test [2] | Mod.10X-GST Test [1, 4] [%] |
| --- | --- | --- | --- |
| OCC(O)CO [Sample 1, glycerin] | 1.84 |  |  |
| OCC(O)CO [Sample 2, glycerin] | 1.58 |  |  |
| OCC(O)CO [Sample 5, glycerin] | -0.27 |  |  |
| OCC(O)CO [Sample 6, glycerin] | 4.68 | 0.13 | 0.13 |
| OCC(O)CO [Sample 7, glycerin] | 3.65 | 0.22 | 0.09 |
| OCC(O)CO [Sample 8, glycerin] |  | 0.01 | 0.17 |
| OCC(O)CO [Sample 10, glycerin] | -0.03 |  |  |
